The experiment relates to classical complement pathway. Put plainly: In vitro haemolysis assay (inhibition of classical complement pathway). Type of experiment: cell-based, human. In outline:
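Serially diluted compound (9 points) was preincubated 15 min at room temperature with diluted human serum, titrated per batch to give 70-90% maximal haemolysis, in Tris/casein buffer pH 7.4 with Mg2+/Ca2+. Antibody-sensitized sheep erythrocytes were then added for 30 min at 37° C, and the reaction was stopped with EDTA. Haemolysis was read at A405, with IC50 from 4PL fit.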

Where [1] appears, read: Table 3, human serum, sensitized sheep red blood cells, read-out: IC50[nM], in vitro analysis of inhibition of hemolysis.
Where [2] appears, read: Table 4, valine 3 versus isoleucine 3 pairs, read-out: CP hemolysis IC50.

SMILES strings stand for the structures. Like-named read-outs stand apart in the source and are kept apart here. Starred links: 1 amine or outer side, 2 acyl side, 3 side chain; linkers in the order of their positions; H or OH if unused. Positions of bridges follow the written chain, without caps; N, C: chain ends. Non-standard residues stand in square brackets, D forms with d. Residues, ends and D or L forms follow the SMILES beside them. Groups on a side chain read outwards from the residue. *: point of attachment. Trp(1-Me) = Cn1cc(C[C@H](N)C(=O)O)c2ccccc21; Abu(4-yl) = O=C([C@H](CC[*:3])N[*:1])[*:2]; C18 diacid = O=C(O)CCCCCCCCCCCCCCCCC(=O)*; C16 diacid = O=C(O)CCCCCCCCCCCCCCC(=O)*; γGlu = O=C(O)[C@H](CCC(=O)[*:2])N[*:1]; AEEA = NCCOCCOCC(=O)O; Sar = CNCC(=O)O

By IC50 is commonly meant the midpoint of a concentration-inhibition curve. `CC[C@H](C)[C@@H]1NC(=O)[C@@H](NC(=O)[C@H](Cc2ccccc2)NC(=O)[C@H](CCC(=O)O)NC(=O)[C@H](CO)NC(C)=O)CSSC[C@@H](C(=O)N(C)CC(=O)N[C@@H](CCC(=O)O)C(=O)N[C@@H](C)C(N)=O)NC(=O)[C@H](CCCCN)NC(=O)[C@H](Cc2c[nH]cn2)NC(=O)[C@H](CCC(=O)O)NC(=O)CNC(=O)[C@H](Cc2c[nH]c3ccccc23)NC(=O)[C@H](CC(=O)O)NC(=O)[C@H](CCC(N)=O)NC(=O)[C@H](Cc2cn(C)c3ccccc23)NC1=O` [Compound 86] (Ac-SEFCI[Trp(1-Me)]QDWGEHKC[Sar]EA-NH2; disulfide 4-14): under setting [1], the IC50 is less than 100 nM.
Same read-out and setting: to `CC[C@H](C)[C@@H]1NC(=O)[C@@H](NC(=O)[C@@H](NC(=O)[C@H](CCCCN)NC(=O)[C@H](CCC(=O)O)NC(=O)[C@H](CCCCN)NC(C)=O)[C@@H](C)CC)CSSC[C@@H](C(=O)N[C@H](C(=O)N[C@@H](CCC(=O)O)C(=O)N[C@@H](CCCCN)C(=O)N[C@@H](CCC(=O)O)C(N)=O)[C@@H](C)O)NC(=O)[C@H](CCCNC(=N)N)NC(=O)[C@H](Cc2c[nH]cn2)NC(=O)[C@H](CCC(=O)O)NC(=O)CNC(=O)[C@H](Cc2c[nH]c3ccccc23)NC(=O)[C@H](CC(=O)O)NC(=O)[C@H](CCC(N)=O)NC(=O)[C@H](Cc2c[nH]c3ccccc23)NC1=O` [Compound 37] (Ac-KEKICIWQDWGEHRCTEKE-NH2; disulfide 5-15) belongs less than 250 nM.
Still for that read-out and setting: the value for `CC[C@H](C)[C@@H]1NC(=O)[C@@H](NC(=O)[C@H](Cc2ccccc2)NC(=O)[C@H](CCC(=O)O)NC(=O)[C@H](CO)NC(C)=O)CCSC[C@@H](C(=O)N(C)CC(=O)N[C@@H](CCC(=O)O)C(=O)NCCOCCOCC(=O)NCCOCCOCC(=O)N[C@@H](CCCCNC(=O)CC[C@H](NC(=O)CNC(=O)CC[C@H](NC(=O)CCCCCCCCCCCCCCCCC(=O)O)C(=O)O)C(=O)O)C(N)=O)NC(=O)[C@H](CCCNC(=N)N)NC(=O)[C@H](Cc2c[nH]cn2)NC(=O)[C@H](CCC(=O)O)NC(=O)CN(C)C(=O)[C@H](Cc2c[nH]c3ccccc23)NC(=O)[C@H](CC(=O)O)NC(=O)[C@H](CCC(N)=O)NC(=O)[C@H](Cc2cn(C)c3ccccc23)NC1=O` [Compound 164, Ac-SEFhC(1)I[1-Me-Trpp]QDW[Sar]EHRA(1)[Sar]E[Peg3][Peg3]-K([17-carboxy-heptadecanoyl][γGlu]G[γGlu])-NH2] (Ac-SEF[Abu(4-yl)]I[Trp(1-Me)]QDW[Sar]EHRC[Sar]E[AEEA][AEEA]K([γGlu-Gly-γGlu-C18 diacid])-NH2; thioether 4-14) was less than 100 nM; that for `CC[C@H](C)[C@H](NC(C)=O)C(=O)N[C@H]1CSSC[C@@H](C(=O)N[C@H](C(=O)N[C@@H](CCC(=O)O)C(N)=O)[C@@H](C)O)NC(=O)[C@H](CCCNC(=N)N)NC(=O)[C@H](Cc2c[nH]cn2)NC(=O)[C@H](CCC(=O)O)NC(=O)CNC(=O)[C@H](Cc2c[nH]c3ccccc23)NC(=O)[C@H](CC(=O)O)NC(=O)[C@H](CCC(N)=O)NC(=O)[C@H](Cc2c[nH]c3ccccc23)NC(=O)[C@H]([C@@H](C)CC)NC1=O` [Compound 26] (Ac-ICIWQDWGEHRCTE-NH2; disulfide 2-12) was less than 100 nM.
With `CC[C@H](C)[C@H](NC(C)=O)C(=O)N[C@H]1CSSC[C@@H](C(=O)N[C@H](C(N)=O)[C@@H](C)O)NC(=O)[C@H](CO)NC(=O)[C@H](Cc2c[nH]cn2)NC(=O)[C@H](C)NC(=O)CNC(=O)[C@H](Cc2c[nH]c3ccccc23)NC(=O)[C@H](CC(=O)O)NC(=O)[C@H](CCC(N)=O)NC(=O)[C@H](Cc2c[nH]c3ccccc23)NC(=O)[C@H]([C@@H](C)CC)NC1=O` [Compound 19] (Ac-ICIWQDWGAHSCT-NH2; disulfide 2-12), the concentration for half-maximal inhibition (IC50) was less than 250 nM under setting [1] and 140 nM under setting [2].
Turning to `CC[C@H](C)[C@H](NC(=O)[C@H](C)NC(=O)[C@H](CO)NC(=O)[C@H](CO)NC(=O)[C@H](CCC(=O)O)NC(=O)CCCCCCCCCCCCCCC(=O)O)C(=O)N[C@H]1CSSC[C@@H](C(=O)N[C@H](C(=O)N[C@@H](CCC(=O)O)C(=O)NCC(=O)N[C@@H](CCC(=O)O)C(N)=O)[C@@H](C)O)NC(=O)[C@H](CCCNC(=N)N)NC(=O)[C@H](Cc2c[nH]cn2)NC(=O)[C@H](CCC(=O)O)NC(=O)CNC(=O)[C@H](Cc2c[nH]c3ccccc23)NC(=O)[C@H](CC(=O)O)NC(=O)[C@H](CCC(N)=O)NC(=O)[C@H](Cc2c[nH]c3ccccc23)NC(=O)[C@H]([C@@H](C)CC)NC1=O` [Compound 99] ({C16 diacid}-ESSAICIWQDWGEHRCTEGE-NH2; disulfide 6-16), the IC50 under setting [1] was less than 250 nM.
The same measure, in the same setting: the value for `CC[C@H](C)[C@@H]1NC(=O)[C@@H](NC(=O)[C@H](Cc2ccccc2)NC(=O)[C@H](CCC(=O)O)NC(=O)CNC(C)=O)CSCC[C@@H](C(=O)N(C)CC(=O)N[C@@H](CCC(=O)O)C(=O)NCC(=O)N[C@@H](CCC(=O)O)C(=O)NCCOCCOCC(=O)N[C@@H](CCC(=O)O)C(=O)N[C@@H](CO)C(=O)N[C@@H](CCCCNC(=O)CC[C@H](NC(=O)CNC(=O)CC[C@H](NC(=O)CCCCCCCCCCCCCCCCC(=O)O)C(=O)O)C(=O)O)C(N)=O)NC(=O)[C@H](CCCNC(=N)N)NC(=O)[C@H](Cc2c[nH]cn2)NC(=O)[C@H](CCC(=O)O)NC(=O)CNC(=O)[C@H](Cc2c[nH]c3ccccc23)NC(=O)[C@H](CCC(=O)O)NC(=O)[C@H](CCC(N)=O)NC(=O)[C@H](Cc2cn(C)c3ccccc23)NC1=O` [Compound 155, Ac-GEFA(1)I[1-Me-Trp]QEWGEHRhC(1)[Sar]EGE[Peg3]ES-K([17-carboxy-heptadecanoyl][γGlu]G[γGlu])-NH2] (Ac-GEFCI[Trp(1-Me)]QEWGEHR[Abu(4-yl)][Sar]EGE[AEEA]ESK([γGlu-Gly-γGlu-C18 diacid])-NH2; thioether 4-14) was less than 100 nM; that for `CC[C@H](C)[C@H](NC(=O)CNC(=O)[C@H](CCCCN)NC(=O)[C@H](CCC(=O)O)NC(C)=O)C(=O)N[C@H]1CSSC[C@@H](C(=O)N[C@H](C(=O)N[C@@H](CCC(=O)O)C(=O)N[C@@H](CCCCN)C(=O)N2CCC[C@H]2C(N)=O)[C@@H](C)O)NC(=O)[C@H](CCCNC(=N)N)NC(=O)[C@H](Cc2c[nH]cn2)NC(=O)[C@H](CCC(=O)O)NC(=O)CNC(=O)[C@H](Cc2c[nH]c3ccccc23)NC(=O)[C@H](CC(=O)O)NC(=O)[C@H](CCC(N)=O)NC(=O)[C@H](Cc2c[nH]c3ccccc23)NC(=O)[C@H]([C@@H](C)CC)NC1=O` [Compound 38] (Ac-EKGICIWQDWGEHRCTEKP-NH2; disulfide 5-15) was less than 250 nM; that for `CC[C@H](C)[C@H](NC(C)=O)C(=O)N[C@H]1CSSC[C@@H](C(=O)N[C@H](C(=O)NCC(=O)N[C@@H](C)C(=O)N[C@@H](CCC(=O)O)C(=O)N[C@@H](CO)C(N)=O)[C@@H](C)O)NC(=O)[C@H](CCCNC(=N)N)NC(=O)[C@H](Cc2c[nH]cn2)NC(=O)[C@H](C)NC(=O)CNC(=O)[C@H](Cc2c[nH]c3ccccc23)NC(=O)[C@H](CCCCN)NC(=O)[C@H](CCC(N)=O)NC(=O)[C@H](Cc2c[nH]c3ccccc23)NC(=O)[C@H]([C@@H](C)CC)NC1=O` [Compound 8] (Ac-ICIWQKWGAHRCTGAES-NH2; disulfide 2-12) was less than 500 nM.
For the compound `CC[C@H](C)[C@@H]1NC(=O)[C@@H](NC(=O)[C@H](Cc2ccccc2)NC(=O)[C@H](CCC(=O)O)NC(C)=O)CSSC[C@@H](C(=O)N[C@@H](CCC(=O)O)C(=O)N[C@@H](CO)C(N)=O)NC(=O)[C@H](CCCNC(=N)N)NC(=O)[C@H](Cc2c[nH]cn2)NC(=O)[C@H](CCC(=O)O)NC(=O)CNC(=O)[C@H](Cc2c[nH]c3ccccc23)NC(=O)[C@H](CC(=O)O)NC(=O)[C@H](CCC(N)=O)NC(=O)[C@H](Cc2cn(C)c3ccccc23)NC1=O` [Compound 85] (Ac-EFCI[Trp(1-Me)]QDWGEHRCES-NH2; disulfide 3-13), the IC50 under setting [1] is less than 100 nM.
On the same count and under the same terms, the value for `CC[C@H](C)[C@H](NC(C)=O)C(=O)N[C@H]1CSSC[C@@H](C(=O)N[C@H](C(N)=O)[C@@H](C)O)NC(=O)[C@H](CCCNC(=N)N)NC(=O)[C@H](Cc2c[nH]cn2)NC(=O)[C@H](CC(=O)O)NC(=O)CNC(=O)[C@H](Cc2c[nH]c3ccccc23)NC(=O)[C@H](CC(=O)O)NC(=O)[C@H](CCC(N)=O)NC(=O)[C@H](Cc2c[nH]c3ccccc23)NC(=O)[C@H]([C@@H](C)CC)NC1=O` [Compound 17] (Ac-ICIWQDWGDHRCT-NH2; disulfide 2-12) was less than 100 nM; that for `CC[C@H](C)[C@@H]1NC(=O)[C@@H](NC(=O)[C@H](Cc2ccccc2)NC(=O)[C@H](CCC(=O)O)NC(=O)CNC(C)=O)CSSC[C@@H](C(=O)N(C)CC(=O)N[C@@H](CCC(=O)O)C(=O)N[C@@H](C)C(N)=O)NC(=O)[C@H](CCCNC(=N)N)NC(=O)[C@H](Cc2c[nH]cn2)NC(=O)[C@H](CCC(=O)O)NC(=O)CNC(=O)[C@H](Cc2c[nH]c3ccccc23)NC(=O)[C@H](CC(=O)O)NC(=O)[C@H](CCC(N)=O)NC(=O)[C@H](Cc2cn(C)c3ccccc23)NC1=O` [Compound 87] (Ac-GEFCI[Trp(1-Me)]QDWGEHRC[Sar]EA-NH2; disulfide 4-14) was less than 100 nM.
Consider `CC[C@H](C)[C@H](NC(C)=O)C(=O)N[C@H]1CSSC[C@@H](C(=O)N[C@@H](CO)C(N)=O)NC(=O)[C@H](CCCNC(=N)N)NC(=O)[C@H](Cc2c[nH]cn2)NC(=O)[C@H](CCC(=O)O)NC(=O)CNC(=O)[C@H](Cc2c[nH]c3ccccc23)NC(=O)[C@H](CC(=O)O)NC(=O)[C@H](CCC(N)=O)NC(=O)[C@H](Cc2c[nH]c3ccccc23)NC(=O)[C@H](C(C)C)NC1=O` [G, reference compound] (Ac-ICVWQDWGEHRCS-NH2; disulfide 2-12), for which the IC50 under setting [2] came out at 180 nM.
As for `CC[C@H](C)[C@H](NC(C)=O)C(=O)N[C@H]1CSSC[C@@H](C(=O)N[C@H](C(N)=O)[C@@H](C)O)NC(=O)[C@H](CCCNC(=N)N)NC(=O)[C@H](Cc2c[nH]cn2)NC(=O)[C@H](CCC(=O)O)NC(=O)CNC(=O)[C@H](Cc2c[nH]c3ccccc23)NC(=O)[C@H](CCC(=O)O)NC(=O)[C@H](CCC(N)=O)NC(=O)[C@H](Cc2c[nH]c3ccccc23)NC(=O)[C@H]([C@@H](C)CC)NC1=O` [Compound 16] (Ac-ICIWQEWGEHRCT-NH2; disulfide 2-12), the IC50 under setting [1] is less than 100 nM.

For the origin of these results see US20220306695A1, “COMPSTATIN ANALOGUES AND THEIR MEDICAL USES” (priority 2019, published 2022).
